Test results published in US20140031296A1, “NEW SYNTHETIC PEPTIDES AND THEIR USE” (PERGAMUM AB, priority 2011, published 2014).

Key:
[1] = system: TNF-α production in LPS stimulated THP-1 cells; test: Inhibition of TNF-α production in LPS stimulated THP-1 cells (ELISA); type: cell-based, human; settings: mean relative secretion, basal = 0%; for TNF-α at 40 μM peptide: LPS-stimulated level without peptide = 100%; for TNF-α at 4 μM peptide / TNF-α at 10 μM peptide: stimulated = 100%
Protocol: (§1) After 6 hours of incubation at +37° C., 5% CO2 and in a humid atmosphere, the cell supernatants were collected, centrifuged and kept frozen in −20° C. until analyzed for TNF-α content by ELISA (R&D Systems, Minneapolis, Minn., USA). The results are presented as mean relative secretion (%), with stimulated TNF-α level without peptide added set to 100% and basal secretion set to 0% (Table 2).
as §1, with “incubation,” for “incubation at +37° C., 5% CO2 and in a humid atmosphere,”, “centrifuged,” for “centrifuged”, “5).” for “2).”

[2] = system: S. aureus (CCUG 1800); test: Minimal microbicidal concentration (MMC99) assay, S. aureus; type: cell-based; settings: 2 hours; for MMC99 μM in 50% SWF: 50% heat inactivated simulated wound fluid
Protocol: Antimicrobial Activity was Measured as Bactericidal Effect on S. aureus Using Minimal Microbicidal Concentration, MMC99, Assay)
S. aureus (#1800; CCUG, Gothenburg, Sweden) cultured on blood-agar plates [Columbia agar (Oxoid, Basingstoke, UK) supplemented with 5% defibrinated horse blood (National Veterinary Institute (SVA), Uppsala, Sweden)] were transferred to brain heart infusion broth (3.7% BHI; Difco, BD Diagnostics, Franklin Lakes, N.J., USA) and incubated in a shaker at 250 rpm+37° C. over night. The culture was thereafter be diluted 1:10 in fresh BHI broth and incubated for additional two hours to reach log-phase growth. The bacteria were pelleted and suspended in 1% BHI medium (BHI broth diluted 100 times in ultra-pure water) to a concentration of 10^7 bacteria/ml as estimated by measuring optical density at 600 nm. Peptides were serially diluted by two-fold steps from 160 μM to 1.25 μM in 1% BHI medium. The peptides (100 μl) were thereafter incubated with bacteria (5 μl á 10^7 bact./ml) for 2 hours at +37° C. Drops (5 μl) of the suspension were placed on blood agar plates. The blood agar plates were incubated over night at +37° C. The MMC99 values, i.e. the lowest peptide concentration needed to achieve a 99% reduction of viable bacteria, were recorded (Table 3). The concentration of the bacterial suspension used in the assay was confirmed by viable counts on blood agar plates.
S. aureus (#1800; CCUG, Gothenburg, Sweden) cultured on blood-agar plates [Columbia agar (Oxoid, Basingstoke, UK) supplemented with 5% defibrinated horse blood (National Veterinary Institute (SVA), Uppsala, Sweden)] were transferred to brain heart infusion broth (3.7% BHI; Difco, BD Diagnostics, Franklin Lakes, N.J., USA) and incubated in a shaker at 250 rpm+37° C. over night. The culture was thereafter be diluted 1:10 in fresh BHI broth and incubated for additional two hours to reach log-phase growth. The bacteria were pelleted and suspended in 1% BHI medium (BHI broth diluted 100 times in ultra-pure water) to a final concentration of 10^7 bacteria/ml as estimated by measuring optical density at 600 nm.
Peptides were serially diluted by two-fold steps from 400 μM to 0.78 μM in either 1% BHI medium or in 50% heat inactivated simulated wound fluid [SWF, containing 1 part 0.1% peptone (Oxoid, Basingstoke, UK) in saline and 1 part fetal bovine serum, diluted 2 times in ultra-pure water].
The peptides (100 μl) were thereafter incubated with bacteria (5 μl a 10^7 bact./ml) for 2 hours at +37° C. Drops (5 μl) of the suspension were placed on blood agar plates. The blood agar plates were incubated over night at +37° C. The MMC99 values, i.e. the lowest peptide concentration needed to achieve a 99% reduction of viable bacteria were recorded (Table 6). The concentration of the bacterial suspension used in the assay was confirmed by viable counts on blood agar plates.
The antimicrobial effects of the peptides 232 (SEQ ID NO: 78), and 220 (SEQ ID NO:67) were analysed by MMC99 (minimal microbicidal concentration) assay against S. aureus (CCUG 1800), MRSA (CCUG 41879), P. aeruginosa (ATCC 15442), E. coli (CCUG 31246), S. pyogenes (CCUG 4207), P. acnes (CCUG 1794T), S. epidermidis (ATCC12228), K. pneumoniae (ATCC 13883), A. baumannii (ATCC 19606), and C. albicans (ATCC 64549). The peptides were purchased from Biopeptide Company (San Diego, Calif., USA) and Bachem AG (Bubendorf, Switzerland) and results are presented in Table 8A and 8B respectively.
Peptides were serially diluted in two different assay medium, 1% BHI medium (brain-heart infusion medium) or 50% heat inactivated simulated wound fluid (SWF), and thereafter incubated with the microorganisms for 2 hours. Drops of the suspension were placed on blood agar plates. The MMC99 values, i.e. the lowest peptide concentration needed to achieve a 99% reduction of viable microorganisms, were recorded. As presented in Table 8, all the peptides have the ability to kill microorganisms frequently appearing in infections. […]

[3] = screen 1, 99% reduction of viable bacteria

Row | Sequence | TNF-α at 40 μM peptide ([1]; screen 1) | MMC99 μM in 1% BHI medium [2, 3] | TNF-α at 4 μM peptide ([1]; screen 2) | TNF-α at 10 μM peptide ([1]; screen 2) | TNF-α at 40 μM peptide ([1]; screen 2) | MMC99 μM in 1% BHI medium ([2]; screen 2) | MMC99 μM in 50% SWF ([2]; screen 2)
1 | FQWQRNLRKLR [Peptide 135] | 103% | 20 µM | – | – | – | – | –
2 | CFLWRRLMRKLR [Peptide 228] | – | – | 106.6% | 95.4% | 53.6% | 12.5 µM | 50 µM
3 | RLWRRLMRKVR [Peptide 238] | – | – | 83.9% | 89.2% | 76.5% | 12.5 µM | 100 µM
4 | RWCFLWRRLMRKHRRL [Peptide 240] | – | – | 78.3% | 59.9% | – | 12.5 µM | 25 µM
5 | QTEADKCFQWQRNMRKVR [Peptide 106] (QNEADKCFQWQRNMRKVR) | 96% | 160 µM | – | – | – | – | –
6 | WFQWQRNMRKVR [Peptide 128] | 104% | 20 µM | – | – | – | – | –
7 | QPEATKCFPWQRNMRKVR [Peptide 118] | 113% | >160 µM | – | – | – | – | –
8 | QSLATKLFQWLRNLRKVR [Peptide 114] | 15% | 2.5 µM | – | – | – | – | –
9 | TQPDATKCFQWQRNMRKVR [Peptide 103] | 135% | >160 µM | – | – | – | – | –
10 | LRLWRRLMRKVW [Peptide 231] | – | – | 102.6% | 89.1% | 49.8% | 12.5 µM | 50 µM
11 | QSLATKCFQWQRNMRKVR [Peptide 111] | 121% | 20 µM | – | – | – | – | –
12 | QSEATKCFQWLRNMRKVR [Peptide 113] | 22% | >160 µM | – | – | – | – | –
13 | FQWQRRIRKVR [Peptide 124] | 128% | 20 µM | – | – | – | – | –
14 | CFQWQKRMKRVK [Peptide 148] | 132% | 20 µM | – | – | – | – | –
15 | CLNFKRGVRKIR [Peptide 141] | 109% | 20 µM | – | – | – | – | –
16 | QSLAEKLFQWLRNLRKVR [Peptide 117] | 13% | 2.5 µM | – | – | – | – | –
17 | FQWKPAIRKVR [Peptide 140] | 117% | >160 µM | – | – | – | – | –
18 | FQWQRNIRKVR [Peptide 136] | 96% | >160 µM | – | – | – | – | –
19 | CFQWKRAMRKVR [Peptide 123] | 156% | 20 µM | – | – | – | – | –
20 | QTEADKCFQWQRNMRKVR [Peptide 105] | 87% | >160 µM | – | – | – | – | –
21 | WRRWLRKMVKRL [Peptide 249] | – | – | 91.2% | 78.0% | −0.7% | 12.5 µM | 6.25 µM
22 | CFKWKRKMRKVR [Peptide 147] | 111% | 10 µM | – | – | – | – | –

Row | Sequence | TNF-α at 40 μM peptide ([1]; screen 1) | MMC99 μM in 1% BHI medium [2, 3] | TNF-α at 4 μM peptide ([1]; screen 2) | TNF-α at 10 μM peptide ([1]; screen 2) | TNF-α at 40 μM peptide ([1]; screen 2) | MMC99 μM in 1% BHI medium ([2]; screen 2) | MMC99 μM in 50% SWF ([2]; screen 2)
23 | WCRWLRKMVKAL [Peptide 248] | – | – | 87.1% | 80.2% | 24.2% | 25 µM | 50 µM
24 | QSLARTFKQWARNLRKVL [Peptide 209] | – | – | 88.0% | 68.2% | 23.6% | 12.5 µM | 100 µM
25 | WFQWKRRMRKVR [Peptide 129] | 91% | 10 µM | – | – | – | – | –
26 | QSLATKLFQWRRNLRKVR [Peptide 121] | 35% | 10 µM | – | – | – | – | –
27 | RWCKLWRRLMRKVRRL [Peptide 239] | – | – | 65.6% | 56.5% | – | 12.5 µM | 25 µM
28 | QSLAHSLFQWLRNLRKVR [Peptide 218] | – | – | 81.8% | 55.7% | 9.2% | 6.25 µM | 50 µM
29 | FQWKRAMRKVR [Peptide 122] | – | 20 µM | – | – | – | – | –
30 | FQWQPRIRKVR [Peptide 138] | 172% | >160 µM | – | – | – | – | –
31 | FQWQRNMRKVR [Peptide 133] | 135% | >160 µM | – | – | – | – | –
32 | CFQWQRKMRKVR [Peptide 143] | 153% | 20 µM | – | – | – | – | –
33 | FWWQRKMRKVR [Peptide 131] | 87% | 5 µM | – | – | – | – | –
34 | FQWRRAIRKVR [Peptide 125] | 150% | 20 µM | – | – | – | – | –
35 | CWLWRRAMRKVW [Peptide 230] | – | – | 119.2% | 135.6% | 80.4% | 25 µM | 100 µM
36 | GRRRRSVQWCA [Peptide 223] | – | – | – | – | 104.4% | 25 µM | –
37 | QSEATKRFQWLRNLRKVLKR [Peptide 211] | – | – | 100.7% | 89.8% | 62.8% | 6.25 µM | 100 µM
38 | SQPEATKCFQWQRNMRKVR [Peptide 101] | 116% | >160 µM | – | – | – | – | –
39 | RSLAQKLFQWLRNLRKVR [Peptide 219] | – | – | 68.5% | 44.0% | 7.3% | 6.25 µM | 12.5 µM
40 | PEATKCFQWQRNMRKVR [Peptide 108] | 127% | >160 µM | – | – | – | – | –
41 | QSEAEKCFQWQRNMRKVR [Peptide 107] | 108% | >160 µM | – | – | – | – | –
42 | CFQWKRAMRKVR [Peptide 144] | 140% | 10 µM | – | – | – | – | –
43 | QSERKKRFQWLRNLRKVL [Peptide 206] | – | – | 96.9% | 92.9% | 51.0% | 12.5 µM | 100 µM
44 | NQPTATKCFQWQRNMRKVR [Peptide 102] | 108% | >160 µM | – | – | – | – | –
